Source: patent publication US5750782A, “Nitroaniline derivatives and their use as anti-tumour agents” (priority 1996, dated 1998)
pIC50: −log10 of the molar value. Read-outs that look alike come from different tables or passages of the source.

How the values were obtained:
[1] = product of CB 1954 reduction by Walker cell enzyme; cited from earlier work
[2] = test system: V79 cells; assay: Survival of V79 cells in the presence of the B. amyloliquifaciens nitroreductase; format: cell-based; conditions: 2 h, 37° C
Description: The effect of SN23862 on the survival of V79 cells in the preence of the B. amyloliquifaciens nitroreductase. All treatments were for 2 hours at 37° C. and the cells were then plated out for their resulting colony forming ability. […] The initial cell density was 2×10^5 /mL.

[3] = test system: MAWI Cells; assay: Survival of Mawi cells in the presence of the E. coli nitroreductase: A5B7 F(ab)2 conjugate; format: cell-based; conditions: 2 h, 37° C
Description: (§1) The conjugate concentration was 81 μg/ml (euivalent to 5.2 μg/ml nitroreductase) and NADII was used as a co-factor. […] No attempt was made to remove unbound conjugate.

[4] = test system: V79 cells; assay: Survival of V79 cells in the presence of the E. coli nitroreductase; conditions: hamster, 2 h
Description: (§3) The nitroreductase concentration was 2 μg/ml and NADH was used as a co-factor. The initial cell density was 2×10^5 /mL.

[5] = test system: V79 cells; assay: Survival of V79 cells in the presence of the E. coli nitroreductase: A5B7 F(ab)2 conjugate; format: cell-based; conditions: 2 h, 37° C
Description: as §1

[6] = test system: UV4 cell line; assay: Ratio of IC50 values against UV4 cell line in presence and absence of E. coli nitroreductase enzyme NTR-2; format: cell-based; conditions: air, ratio of IC50 in presence and absence of E. coli nitroreductase NTR-2, 1080 min
Description: (§2) Growth inhibition studies were performed as described in detail elsewhere (W.R. Wilson, R.F. Anderson and W.A Denny. J Med. Chem., 1989, 32, 23; G.J. Finlay, B.C. Baguley and W.R. Wilson. Anal Biochem., 1984, 139, 172.), using 200 viable AA8 or 300 viable UV4 cells plus 5000 lethally-irradiated AA8 feeder cells per well in 96-well tissue culture dishes. AA8 and UV4 cells were maintained in logarithmic-phase growth in […] tissue culture flasks with subculture twice weekly by trypsinization. The growth medium was antibiotic-free α-MEM with 10% v/v heat-inactivated ([…], 40 min) fetal calf serum. Doubling times were approximately 14h for AA8 and 15h for UV4 cells.
Ratio of IC50 values for a compound after exposure as detailed above against the UV4 cell line in the presence and absence of the E. coli nitroreductase enzyme NTR-2.

[7] = test system: UV4; assay: Growth inhibition (IC50), UV4 cells, aerobic; format: cell-based; conditions: air, 18 h exposure
Description: as §2

[8] = test system: AA8 and UV4 cell lines; assay: Ratio of IC50 values against AA8 and UV4 cell lines (HFair); format: cell-based; conditions: 18 h exposure
Description: as §2
Ratio of IC50 values for a compound after exposure as detailed above against AA8 and UV4 cell lines (HF=IC50 (AA8)/IC50 (UV4)).

[9] = target: T1, E. coli nitroreductase (Escherichia coli, UniProt P38489); assay: Drug reduction by the E. coli nitroreductase; format: biochemical; conditions: 120 min
T1 sequence (P38489 1-217): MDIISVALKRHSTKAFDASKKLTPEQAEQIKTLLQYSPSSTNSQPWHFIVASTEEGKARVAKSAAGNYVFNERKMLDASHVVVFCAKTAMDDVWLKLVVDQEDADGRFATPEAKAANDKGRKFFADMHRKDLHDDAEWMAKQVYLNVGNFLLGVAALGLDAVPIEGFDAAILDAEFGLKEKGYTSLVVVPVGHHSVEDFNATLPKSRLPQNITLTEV

[10] = target: T2, E. coli nitroreductase: A5B7 F(ab)2 conjugate (Escherichia coli, UniProt P38489); assay: Drug reduction by the E. coli nitroreductase: A5B7 F(ab)2 conjugate; format: biochemical; conditions: 120 min
T2 construct: A5B7 F(ab)2 antibody fragment (conjugate)
T2 sequence (P38489 1-217): T1 sequence (P38489 1-217)
Description: as §1

[11] = test system: bacterial nitroreductase enzymes; assay: Reductive activation by bacterial nitroreductase enzymes; format: biochemical, Escherichia coli and Bacillus amyloliquifaciens; conditions: Examples 1 to 3
[12] = test system: V79 cells; conditions: 2 h, 37° C
Description: as §3

[13] = target: T3, B. amyloliquifaciens nitroreductase (Bacillus amyloliquefaciens, UniProt Q8VSR5); assay: Drug reduction by the B. amyloliquifaciens nitroreductase; format: biochemical; conditions: 120 min
T3 sequence (Q8VSR5 1-174): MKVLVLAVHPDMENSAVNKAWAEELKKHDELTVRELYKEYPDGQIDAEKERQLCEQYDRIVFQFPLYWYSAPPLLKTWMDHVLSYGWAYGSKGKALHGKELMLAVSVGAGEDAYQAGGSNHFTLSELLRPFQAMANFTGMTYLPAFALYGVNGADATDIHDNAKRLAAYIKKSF
Description: The nitroreductase concentration was 7.45 μg/ml and NADII was ised as a co-factor.

[14] = test system: AA8; assay: Growth inhibition (IC50), AA8 cells, aerobic; format: cell-based; conditions: air, 18 h exposure
Description: as §2

[15] = test system: AA8 cells; assay: Radiosensitisation of hypoxic AA8 cells, gamma irradiation; format: cell-based
Description: The radiosensitising efficiency of compound 1 has been assessed in stirred suspensions of AA8 cells under hypoxie conditions using gamma irradiation (cobalt 60) at a dose rate of 2.2 Gy/min at 37° C. Drug and cells were mixed under hypoxic conditions 30 min before irradiation.

[16] = test system: UV4 cells; assay: Clonogenic assay, UV4 cells (CT10), aerobic and hypoxic; format: cell-based
Text: The product (in μM-hr) of the drug concentration times the exposure time to reduce cell survival to 10% of control values in the clonogenic assay.
Ratio of CT10 values after exposure of UV4 cells as detailed above under either aerobic (air) or hypoxic (N2) conditions (=aerobic CT10 /hypoxic CT10).

[17] = test system: EC.1.6.99.2; conditions: Walker cell enzyme; cited from earlier work
[18] = test system: bacterial nitroreductase enzymes; conditions: PCT/GB92/01947; cited from earlier work
[19] = test system: Walker tumour cells; conditions: in vivo or in vitro; cited from earlier work
[20] = test system: other tumours; conditions: cited from earlier work
[21] = +CG (81 μg/ml) + SN23862 + 500 μM NADH

## NC(=O)c1cc(N2CC2)c(NO)cc1[N+](=O)[O-] [5-(aziridin-1-yl)-2-nitro-4-hydroxylamino-benzamide]
[1]
  anti-tumour activity: active anti-tumour agent

## NC(=O)C1=CN([C@@H]2O[C@H](COP(=O)(O)OP(=O)(O)OC[C@H]3O[C@@H](n4cnc5c(N)ncnc54)[C@H](O)[C@@H]3O)[C@@H](O)[C@H]2O)C=CC1 [NADH, reference compound]
[2]; +500 μM NADH alone
  % SURVIVAL: 120%
[3]; +500 μM NADH alone
  % SURVIVAL MAWI Cells: 104.6%
[4]
  % SURVIVAL: 100%
[5]; +500 μM NADH alone
  % SURVIVAL V79 Cells: 94.6%

## NC(=O)c1cc(N(CCCl)CCCl)c([N+](=O)[O-])cc1[N+](=O)[O-] [Compound 1, 5-[N,N-bis(2-chloroethyl)amino]-2,4-diritrobenzamide]
[2]; +50 μM SN23862
  % SURVIVAL: 110%
[2]; +BA (7.45 μg/ml) + 50 μM SN23862
  % SURVIVAL: 110%
[2]; +BA (7.45 μg/ml) + SN23862 + 500 μM NADH
  % SURVIVAL: 6.0%
[2]; +NADH + SN23862
  % SURVIVAL: 115%
[6]
  HF (NR-2): 73.5
[3]; +50 μM SN23862
  % SURVIVAL MAWI Cells: 90.9%
[3]; +CG (81 μg/ml) + 50 μM SN23862
  % SURVIVAL MAWI Cells: 94.6%
[3]; [21]
  % SURVIVAL MAWI Cells: 0.014%
[3]; +NADH + SN23862
  % SURVIVAL MAWI Cells: 93.1%
[7]
  pIC50: 3.96
[8]
  HF (air) = IC50 (AA8)/IC50 (UV4): 6.8
[9]; +50 μM SN23862
  % DRUG REDUCTION: < 1.0%
[9]; +NADH + SN23862
  % DRUG REDUCTION: < 1.0%
[9]; +NR + 50 μM SN23862
  % DRUG REDUCTION: < 1.0%
[9]; +NR + SN23862 + 500 μM NADH
  % DRUG REDUCTION: 95%
[5]; +50 μM SN23862
  % SURVIVAL V79 Cells: 94.3%
[5]; +CG (81 μg/ml) + 50 μM SN23862
  % SURVIVAL V79 Cells: 73.5%
[5]; [21]
  % SURVIVAL V79 Cells: 0.003%
[5]; +NADH + SN23862
  % SURVIVAL V79 Cells: 80.4%
[10]; +50 μM SN23862
  % DRUG REDUCTION: < 1.0%
[10]; +CG + 50 μM SN23862
  % DRUG REDUCTION: < 1.0%
[10]; +CG + SN23862 + 500 μM NADH
  % DRUG REDUCTION: > 99%
[10]; +NADH + SN23862
  % DRUG REDUCTION: < 1.0%
[11]
  reductive activation by bacterial nitroreductase enzymes: reductively activated by bacterial nitroreductase enzymes
[12]; +50 μM SN23862
  % SURVIVAL: 100%
[12]; +NADH + SN23862
  % SURVIVAL: 100%
[12]; +NR (2 μg/ml) + 50 μM SN23862
  % SURVIVAL: 99%
[12]; +NR (2 μg/ml) + SN23862 + 500 μM NADH
  % SURVIVAL: 0.007%
[13]; +50 μM SN23862
  % DRUG REDUCTION: < 1.0%
[13]; +BA + 50 μM SN23862
  % DRUG REDUCTION: < 1.0%
[13]; +BA + SN23862 + 500 μM NADH
  % DRUG REDUCTION: > 95%
[13]; +NADH + SN23862
  % DRUG REDUCTION: < 1.0%
[14]
  pIC50: 3.33
[15]; at C1.6, hypoxic AA8 cells, FIG. 1
  drug toxicity at this extent of sensitisation: absence of drug toxicity
[15]; hypoxic AA8 cells, FIG. 1
  Radiosensitisation of hypoxic cells: Radiosensitisation of hypoxic cells was observed
[15]; hypoxic, 10% survival, cobalt 60, 2.2 Gy/min, 37° C, drug 30 min before irradiation
  C1.6 (concentration for an enhancement ratio of 1.6): approximately 100 μM
[16]; UV4 cells, aerobic CT10/hypoxic CT10
  CT10 ratio (air/N2): 58
[16]; air, concentration x time to reduce UV4 cell survival to 10% of control
  CT10 (UV4): 2925 μM-h
[16]; conclusion in words
  hypoxia-selective cytotoxicity: hypoxia-selective cytotoxin

## NC(=O)c1cc(N2CC2)c([N+](=O)[O-])cc1[N+](=O)[O-] [CB 1954, 5-(aziridin-1-yl)-2,4-dinitrobenzaride]
[17]
  reduction of the 4-nitro group to the corresponding hydroxylamine: ability to reduce the 4-nitro group of CB 1954
[18]
  conversion into an active anti-tumour agent by bacterial nitroreductases: capable of converting CB 1954 into an active anti-tumour agents
[19]
  activity against the Walker tumour cells: considerable activity
[20]
  activity against other tumours: virtually inactive
